Key:
[1] = tested on: SD rats (type 2 diabetes model); test: Urine glucose excretion in streptozotocin/high-fat high-sucrose diet type 2 diabetes model rats, glucose-oxidase method; format: in vivo, rat; details: compared with analogues or non-deoxy compounds
Protocol: The health SD rats are injected intraperitoneally with multiple low doses of streptozotocin for modeling (type 2 diabetes model) after feeding with high-fat and high-sucrose diet, and the content of blood glucose is measured before and after modeling. After the modeling successful, the rats for modeling are randomly divided (8 rats/group) into one blank group (administering the same volume of 0.5% CMC sodium solution) and several groups for compounds to be tested (6 mg/kg) according to the content of 24-hour urine glucose and the body weight. Rats in each group are fasted for 16 hours before experiment. The experimental rats are administered intragastrically with glucose (2 g/kg) at 0.5 h after intragastrical administration with compounds to be tested. The urine is collected at the time-period of 0-12 h after administration, and the urine glucose values are measured at each time-period by glucose-oxidase method. […]

[2] = Influencing factors test: higher humidity stability; format: physicochemical; details: listed as I-D1-6 raw materials
Description: (§1) The appearance, number of impurity and the amount of impurity (measured by HPLC) are compared with that of day 0.

[3] = Influencing factors test: light stability; format: physicochemical; details: listed as I-D1-6 raw materials
Description: as §1

hSGLT2 = hSGLT2 (Homo sapiens (Human), UniProt P31639); test: IC50 of inhibition on SGLT2 (method of Meng et al., J. Med. Chem. 2008); format: cell-based; details: compared with methoxyl and methyl analogues of Table 3
hSGLT1 = hSGLT1 (Homo sapiens (Human), UniProt P13866); test: IC50 of inhibition on SGLT1 (method of Meng et al., J. Med. Chem. 2008); format: cell-based; details: compared with methoxyl and methyl analogues of Table 3
[4] = Influencing factors test: higher temperature stability; format: physicochemical; details: listed as I-D1-6 raw materials
Description: as §1

Chain of hSGLT2 (P31639 whole entry): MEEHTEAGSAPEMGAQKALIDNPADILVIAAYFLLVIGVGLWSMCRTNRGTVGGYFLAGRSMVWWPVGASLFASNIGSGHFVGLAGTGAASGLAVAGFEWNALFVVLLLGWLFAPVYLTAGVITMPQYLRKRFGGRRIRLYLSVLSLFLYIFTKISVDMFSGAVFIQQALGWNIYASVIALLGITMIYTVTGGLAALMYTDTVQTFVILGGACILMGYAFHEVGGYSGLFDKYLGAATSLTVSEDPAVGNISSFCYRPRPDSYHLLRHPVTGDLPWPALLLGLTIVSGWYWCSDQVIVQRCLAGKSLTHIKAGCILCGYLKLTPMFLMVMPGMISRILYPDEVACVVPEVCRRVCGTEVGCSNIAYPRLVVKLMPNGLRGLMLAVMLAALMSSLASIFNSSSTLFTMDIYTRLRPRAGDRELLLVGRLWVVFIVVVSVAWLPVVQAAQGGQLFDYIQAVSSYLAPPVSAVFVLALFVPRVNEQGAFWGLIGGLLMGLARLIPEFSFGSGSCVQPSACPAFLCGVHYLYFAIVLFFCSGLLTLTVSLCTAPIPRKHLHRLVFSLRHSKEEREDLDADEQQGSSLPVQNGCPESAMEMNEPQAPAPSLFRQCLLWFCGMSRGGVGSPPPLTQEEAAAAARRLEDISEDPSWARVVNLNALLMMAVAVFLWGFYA
Chain of hSGLT1 (P13866 whole entry): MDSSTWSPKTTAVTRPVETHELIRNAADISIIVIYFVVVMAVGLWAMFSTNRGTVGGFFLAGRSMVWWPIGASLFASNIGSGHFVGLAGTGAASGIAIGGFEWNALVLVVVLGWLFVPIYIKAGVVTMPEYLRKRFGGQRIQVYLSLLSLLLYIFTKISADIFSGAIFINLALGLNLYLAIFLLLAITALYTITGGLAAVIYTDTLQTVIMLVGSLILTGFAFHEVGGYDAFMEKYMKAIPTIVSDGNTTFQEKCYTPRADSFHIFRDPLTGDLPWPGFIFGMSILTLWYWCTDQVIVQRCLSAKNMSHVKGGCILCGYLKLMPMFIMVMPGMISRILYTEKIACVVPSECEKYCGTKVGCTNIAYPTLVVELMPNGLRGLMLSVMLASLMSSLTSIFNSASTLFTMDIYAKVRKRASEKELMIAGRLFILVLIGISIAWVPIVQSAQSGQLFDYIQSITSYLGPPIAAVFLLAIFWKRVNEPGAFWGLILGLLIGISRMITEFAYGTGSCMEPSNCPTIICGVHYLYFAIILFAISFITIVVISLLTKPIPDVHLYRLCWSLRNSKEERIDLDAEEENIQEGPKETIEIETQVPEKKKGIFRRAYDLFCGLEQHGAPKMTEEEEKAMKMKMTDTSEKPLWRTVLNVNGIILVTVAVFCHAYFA

For CCOc1ccc(Cc2cc(C3OC(C)C(O)C(O)C3O)ccc2Cl)cc1 [I-D1-6, (1S)-1-[4-chloro-3-(4-ethoxybenzyl)phenyl]-1,6-dideoxy-D-glucose], the “urine glucose excretion effect (comparison in words)” value [1] was “stronger urine glucose excretion effect”, the Appearance ([2]; higher humidity (30% relative humidity at 30° C.), day 0) was “white, foam-like” and the Appearance ([2]; higher humidity, day 7) was “white foam-like”. The Appearance ([2]; higher humidity, day 14) was “white foam-like”, the Appearance ([3]; light (natural daylight, about 80000 Lx), day 0) was “a white, foam-like” and the Appearance ([3]; light, day 7) was “a white, foam-like”. For the same molecule, the Appearance ([3]; light, day 14) was “a white, foam-like”, the “inhibition to SGLT2 (comparison in words)” value (hSGLT2) was “much stronger inhibition to SGLT2” and the “selectivity on SGLT1/SGLT2 (comparison in words)” value (hSGLT2) was “much better selectivity on SGLT1/SGLT2”. For the same molecule, the “inhibition to SGLT1 (comparison in words)” value (hSGLT1) was “much less inhibition to SGLT1”, the Number of impurity ([4]; 45° C., day 0, HPLC) was 7 and the “Total amount of impurity (%)” value ([4]; 45° C., day 0, HPLC) was 0.89%. The Number of impurity ([4]; 45° C., day 7, HPLC) was 8, the “Total amount of impurity (%)” value ([4]; 45° C., day 7, HPLC) was 0.97% and the Appearance ([4]; 45° C., day 7) was “white, foam-like”. For the same molecule, the Number of impurity ([4]; 45° C., day 14, HPLC) was 9, the Appearance ([4]; 45° C., day 14) was “white, foam-like” and the Appearance ([4]; higher temperature (45° C.), day 0) was “white, foam-like”.

Reference: patent publication US10294259B2, “Phenyl c-glucoside derivative containing deoxyglucose structure, preparation method and use thereof” (Tianjin Institute of Pharmaceutical Research, priority 2012, dated 2019)
